Laboratory results published in PubChem BioAssay AID330 (DTP/NCI, 2004).
Inconclusive results and toxic doses are left out. How the source made its calls: active means survival T/C of 150% or more; inactive means T/C below 125% in these data.

Test system: P388 leukemia ip, CD2F1 mice, survival T/C
Assay: NCI In Vivo Anticancer Drug Screen. Data for tumor model P388 Leukemia (intraperitoneal) in CD2F1 (CDF1) mice
Details: endpoint: median survival time, higher = longer survival
Outline: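 Mice carrying the transplanted tumor received test compound or vehicle. Survival was recorded in each group, and the value is the treated-group measurement divided by that of the vehicle-treated control group.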

[1] = dose: 50.0 mg/kg/injection, schedule: Q01DX005 (ip), vehicle: saline with Tween-80
[2] = dose: 100.0 mg/kg/injection, schedule: Q01DX005 (ip), vehicle: saline with Tween-80
[3] = dose: 200.0 mg/kg/injection, schedule: Q01DX005 (ip), vehicle: saline with Tween-80
[4] = dose: 50.0 mg/kg/injection, schedule: Q01DX009 (ip), vehicle: saline

Measured: T/C

Cc1cc(N=Nc2ccc(NC(=O)c3ccc(N)cc3)cc2C)ccc1N=Nc1ccc2cc(S(=O)(=O)O)cc(S(=O)(=O)O)c2c1
inactive: [1] 97 % of control | dose: 50.0 mg/kg/injection, schedule: Q01DX005 (ip), vehicle: saline 107 % of control | dose: 50.0 mg/kg/injection, schedule: Q01DX005 (ip), vehicle: suspension in saline 101 % of control | [2] 90 % of control | dose: 100.0 mg/kg/injection, schedule: Q01DX005 (ip), vehicle: saline 121 % of control | dose: 100.0 mg/kg/injection, schedule: Q01DX005 (ip), vehicle: suspension in saline 111 % of control | [3] 113 % of control | dose: 200.0 mg/kg/injection, schedule: Q01DX005 (ip), vehicle: saline 121 % of control | dose: 200.0 mg/kg/injection, schedule: Q01DX005 (ip), vehicle: suspension in saline 113 % of control | dose: 400.0 mg/kg/injection, schedule: Q01DX005 (ip), vehicle: saline with Tween-80 109 % of control

CC1(C)OC2(C)CCC1C1C2N1C(=O)Nc1ccccc1 (stereo not given)
inactive: [1] 101 % of control | [2] 106 % of control | [3] 101 % of control

CC(OCc1ccccc1)C(NC(=O)OC(C)(C)C)C(=O)ON1C(=O)CCC1=O (stereo not given)
inactive: dose: 50.0 mg/kg/injection, schedule: Q01DX005 (ip), vehicle: Klucel (hydroxypropylcellulose) (HPC) 109 % of control | dose: 100.0 mg/kg/injection, schedule: Q01DX005 (ip), vehicle: Klucel (hydroxypropylcellulose) (HPC) 105 % of control | dose: 200.0 mg/kg/injection, schedule: Q01DX005 (ip), vehicle: Klucel (hydroxypropylcellulose) (HPC) 96 % of control

C=C1C(=O)OC2(CCCCC)CCCCC12 (stereo not given)
inactive: [4] 96 % of control | dose: 100.0 mg/kg/injection, schedule: Q01DX009 (ip), vehicle: saline 99 % of control | dose: 200.0 mg/kg/injection, schedule: Q01DX009 (ip), vehicle: saline 96 % of control

Cc1ccc(OP(=O)(Oc2ccc(C)cc2)Oc2ccc(C)cc2)cc1.Cc1ccc(OP(=O)(Oc2ccc(C)cc2)Oc2ccc(C)cc2)cc1.Cc1ccc(OP(=O)(Oc2ccc(C)cc2)Oc2ccc(C)cc2)cc1.Cc1ccc(OP(=O)(Oc2ccc(C)cc2)Oc2ccc(C)cc2)cc1.[O-][Cl+3]([O-])([O-])O.[Zn+2]
inactive: dose: 100.0 mg/kg/injection, schedule: Q04DX003 (ip), vehicle: Klucel (hydroxypropylcellulose) (HPC) 98 % of control | dose: 200.0 mg/kg/injection, schedule: Q04DX003 (ip), vehicle: Klucel (hydroxypropylcellulose) (HPC) 102 % of control

O=C(NC(CCS(=O)(=O)n1ccnc1)C(=O)OCc1ccccc1)OCc1ccccc1 (stereo not given)
inactive: dose: 12.5 mg/kg/injection, schedule: Q01DX009 (ip), vehicle: other 97 % of control | dose: 25.0 mg/kg/injection, schedule: Q01DX009 (ip), vehicle: other 104 % of control | dose: 50.0 mg/kg/injection, schedule: Q01DX009 (ip), vehicle: other 106 % of control | dose: 100.0 mg/kg/injection, schedule: Q01DX009 (ip), vehicle: other 97 % of control | dose: 200.0 mg/kg/injection, schedule: Q01DX009 (ip), vehicle: other 90 % of control

CCOP1(=O)N(C)CCN1C
inactive: dose: 12.5 mg/kg/injection, schedule: Q01DX009 (ip), vehicle: saline 117 % of control | dose: 25.0 mg/kg/injection, schedule: Q01DX009 (ip), vehicle: saline 111 % of control | [4] 101 % of control

CS/C(C#N)=C(\C#N)SC
inactive: [1] 115 % of control | [2] 113 % of control

CC(C)(C)c1cc(-n2nc3ccccc3[n+]2[O-])c(O)c(C(C)(C)C)c1
inactive: dose: 60.0 mg/kg/injection, schedule: Q01DX005 (ip), vehicle: saline with Tween-80 100 % of control | dose: 120.0 mg/kg/injection, schedule: Q01DX005 (ip), vehicle: saline with Tween-80 94 % of control | dose: 240.0 mg/kg/injection, schedule: Q01DX005 (ip), vehicle: saline with Tween-80 91 % of control

CCOC(C#CC(=O)C(C)C)OCC
inactive: dose: 60.0 mg/kg/injection, schedule: Q01DX005 (ip), vehicle: saline 101 % of control | dose: 120.0 mg/kg/injection, schedule: Q01DX005 (ip), vehicle: saline 98 % of control | dose: 240.0 mg/kg/injection, schedule: Q01DX005 (ip), vehicle: saline 101 % of control

O=C(/C=C/c1ccc(F)cc1)c1ccc(Cl)cc1
inactive: dose: 100.0 mg/kg/injection, schedule: Q04DX003 (ip), vehicle: saline with Tween-80 90 % of control | dose: 200.0 mg/kg/injection, schedule: Q04DX003 (ip), vehicle: saline with Tween-80 86 % of control | dose: 400.0 mg/kg/injection, schedule: Q04DX003 (ip), vehicle: saline with Tween-80 100 % of control
